Laboratory results published in patent publication US7417052B2, “Phenylene derivative having tetrazole ring or thiazolidinedione ring” (Sankyo Company, Limited, priority 2003, dated 2008).

test system: pentosidine (AGEs) formation in serum of kidney failure patients; assay: AGEs formation inhibitory effect (pentosidine production in serum protein, HPLC); assay type: biochemical, human; details: test compound final concentration 5 mM, incubated at 37° C. for one week, proportion to pentosidine production amount by control
Protocol: AGEs Formation Inhibitory Effect
A solution (50 μl) of the test compound (final concentration 5 mM) in dimethyl sulfoxide was added to a protein (450 μl, serum of kidney failure patients who gave informed consent), and the mixture was incubated at 37° C. for one week. Pentosidine, which is one of the AGEs produced, was measured as follows. To separate pentosidine produced in the protein, 10% trichloroacetic acid (50 μl) was added to the sample after the reaction (50 μl) and the mixture was centrifuged and the precipitated protein was recovered. The recovered protein was washed with 300 μl of 5% trichloroacetic acid, dried and hydrolyzed with 6N hydrochloric acid (100 μl) at 110° C. for 16 hrs. The amount (nmol/l) of pentosidine produced was measured by HPLC (ODS C18, 4.6×250 mm, 335 nm, 385 nm) using a fluorescence detector by the gradient of 30 min., 1.0 ml/min with 0.1% trifluoroacetic acid added distilled water/0.08% trifluoroacetic acid added 80% acetonitrile as a mobile phase (Miyata, T et al.: J. Am. Soc. Nephrol., 7, 1198-1206, 1996, and Miyata, T. et al.: Proc. Natl. Acad. Sci. USA, 93 2353-2358, 1996).
To study AGEs formation inhibitory effect, the proportion of the aforementioned pentosidine production amount to the pentosidine production amount by control was calculated as pentosidine production rate (%).

Structure (SMILES) | pentosidine production rate (%)
CCCCC(=O)N(Cc1ccc(-c2ccccc2-c2nnn[nH]2)cc1)c1cccc(C(=O)O)c1 [Example 1, 3-[N-[[4-[2-(1H-tetrazol-5-yl)phenyl]phenyl]methyl]-N-pentanoylamino]benzoic acid] | 18.1%
CC(=O)N(Cc1ccc(-c2ccccc2-c2nnn[nH]2)cc1)c1cccc(C(=O)O)c1 [Example 2, 3-[N-[[4-[2-(1H-tetrazol-5-yl)phenyl]phenyl]methyl]-N-acetylamino]benzoic acid] | 26.1%
CCC(=O)N(Cc1ccc(-c2ccccc2-c2nnn[nH]2)cc1)c1cccc(C(=O)O)c1 [Example 3, 3-[N-[[4-[2-(1H-tetrazol-5-yl)phenyl]phenyl]methyl]-N-propanoylamino]benzoic acid] | 21.3%
CCCC(=O)N(Cc1ccc(-c2ccccc2-c2nnn[nH]2)cc1)c1cccc(C(=O)O)c1 [Example 4, 3-[N-[[4-[2-(1H-tetrazol-5-yl)phenyl]phenyl]methyl]-N-butanoylamino]benzoic acid] | 17.4%
CCCCCCCC(=O)N(Cc1ccc(-c2ccccc2-c2nnn[nH]2)cc1)c1cccc(C(=O)O)c1 [Example 5, 3-[N-[[4-[2-(1H-tetrazol-5-yl)phenyl]phenyl]methyl]-N-octanoylamino]benzoic acid] | 9.33%
CCCCC(=O)N(Cc1ccc(-c2ccccc2-c2nnn[nH]2)cc1)c1cccc(C(=O)OCc2oc(=O)oc2C)c1 [Example 6, (5-methyl-2-oxo-1,3-dioxolen-4-yl)methyl3-[N-[[4-[2-(1H-tetrazol-5-yl)phenyl]phenyl]methyl]-N-pentanoylamino]benzoate] | 16.8%
CCCCC(=O)N(Cc1ccc(-c2nnn[nH]2)cc1)c1cccc(C(=O)O)c1 [Example 7, 3-[N-[[4-(1H-tetrazol-5-yl)phenyl]methyl]-N-pentanoylamino]benzoic acid] | 27.2%
CCCCC(=O)N(Cc1ccc(-c2ccccc2-c2nnn[nH]2)cc1)c1ccccc1C(=O)O [Example 8, 2-[N-[[4-[2-(1H-tetrazol-5-yl)phenyl]phenyl]methyl]-N-pentanoylamino]benzoic acid] | 23.5%
CCCCC(=O)N(Cc1ccc(-c2ccccc2-c2nnn[nH]2)cc1)c1ccc(C(=O)O)cc1 [Example 9, 4-[N-[[4-[2-(1H-tetrazol-5-yl)phenyl]phenyl]methyl]-N-pentanoylamino]benzoic acid] | 30.8%
CCCC1Cc2ccc(C(=O)O)cc2N(Cc2ccc(-c3ccccc3-c3nnn[nH]3)cc2)C1=O (stereo not shown) [Example 10, 2-oxo-3-propyl-1-[[4-[2-(1H-tetrazol-5-yl)phenyl]phenyl]methyl]-1,3,4-trihydroquinoline-7-carboxylic acid] | 18.0%
CCCC1Cc2cc(C(=O)O)ccc2N(Cc2ccc(-c3ccccc3-c3nnn[nH]3)cc2)C1=O (stereo not shown) [Example 11, 2-oxo-3-propyl-1-[[4-[2-(1H-tetrazol-5-yl)phenyl]phenyl]methyl]-1,3,4-trihydroquinoline-6-carboxylic acid] | 24.9%
CCCC1Cc2ccc(C(=O)OCc3oc(=O)oc3C)cc2N(Cc2ccc(-c3ccccc3-c3nnn[nH]3)cc2)C1=O (stereo not shown) [Example 12, (5-methyl-2-oxo-1,3-dioxolen-4-yl)methyl2-oxo-3-propyl-1-[[4-[2-(1H-tetrazol-5-yl)phenyl]phenyl]methyl]-1,3,4-trihydroquinoline-7-carboxylate] | 29.0%
O=C1CCc2ccccc2N1Cc1ccc(-c2ccccc2-c2nnn[nH]2)cc1 [Example 13, 1-[[4-[2-(1H-tetrazol-5-yl)phenyl]phenyl]methyl]-1,3,4-trihydroquinolin-2-one] | 45.4%
CCCC1Oc2ccc(C(=O)O)cc2N(Cc2ccc(-c3ccccc3-c3nnn[nH]3)cc2)C1=O (stereo not shown) [Example 14, 3-oxo-2-propyl-4-[[4-[2-(1H-tetrazol-5-yl)phenyl]phenyl]methyl]-2H-benzo[e]1,4-oxazine-6-carboxylic acid] | 22.1%
CCCC1Oc2ccc(C(=O)O)cc2N(Cc2ccc(-c3nnn[nH]3)cc2)C1=O (stereo not shown) [Example 15, 3-oxo-2-propyl-4-[4-[4-(1H-tetrazol-5-yl)phenyl]methyl]2-H-benzo[e]1,4-oxazine-6-carboxylic acid] | 23.8%
CCCC1Sc2ccc(C(=O)O)cc2N(Cc2ccc(-c3ccccc3-c3nnn[nH]3)cc2)C1=O (stereo not shown) [Example 16, 3-oxo-2-propyl-4-[[4-[2-(1H-tetrazol-5-yl)phenyl]phenyl]methyl]-2H-benzo[e]1,4-thiazine-6-carboxylic acid] | 25.8%
CCCC1Sc2ccc(C(=O)O)cc2N(Cc2ccc(-c3nnn[nH]3)cc2)C1=O (stereo not shown) [Example 17, 3-oxo-2-propyl-4-[[4-(1H-tetrazol-5-yl)phenyl]methyl]2-H-benzo[e]1,4-thiazine-6-carboxylic acid] | 35.0%
CCc1nc2c(C)cc(C)nc2n1Cc1ccc(C2SC(=O)NC2=O)cc1 (stereo not shown) [Example 18, 5-[4-[(2-ethyl-5,7-dimethylimidazo[4,5-b]pyridin-3-yl)methyl]phenyl]-1,3-thiazolidine-2,4-dione] | 18.0%
CCCc1nc2c(C)cc(C)nc2n1Cc1ccc(C2SC(=O)NC2=O)cc1 (stereo not shown) [Example 19, 5-[4-[(5,7-dimethyl-2-propylimidazo[4,5-b]pyridin-3-yl)methyl]phenyl]-1,3-thiazolidine-2,4-dione] | 23.8%
CCCCC(=O)N(Cc1ccc(C2SC(=O)NC2=O)cc1)c1cccc(C(=O)O)c1 (stereo not shown) [Example 22, 3-[N-[4-(2,4-dioxothiazolidin-5-yl)benzyl]-N-pentanoylamino]benzoic acid] | 12.4%

test system: not given; assay: not given; details: not given

melting point | Structure (SMILES)
197 to 198 °C | CCCC1Oc2ccc(C(=O)O)cc2N(Cc2ccc(-c3ccccc3-c3nnn[nH]3)cc2)C1=O (stereo not shown) [Example 14, 3-oxo-2-propyl-4-[[4-[2-(1H-tetrazol-5-yl)phenyl]phenyl]methyl]-2H-benzo[e]1,4-oxazine-6-carboxylic acid]
221 to 222 °C | CCc1nc2c(C)cc(C)nc2n1Cc1ccc(C2SC(=O)NC2=O)cc1 (stereo not shown) [Example 18, 5-[4-[(2-ethyl-5,7-dimethylimidazo[4,5-b]pyridin-3-yl)methyl]phenyl]-1,3-thiazolidine-2,4-dione]
